Assays:
Type in all cases: in vivo
Agrostis tenuis = test: Herbicidal early post-emergence action (96-well microtiter plates), AGSTE; conditions: 1900 g/ha, scored 9 to 12 days after treatment, 100% = plants have died, 0% = like untreated control plants
In short: (§1)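 Activity was scored by eye 9 to 12 days after treatment (100% = plants dead, 0% = like untreated controls). Spraying used emulsion concentrates at 1900 g/ha in 2200 L/ha water, applied to cotyledon-stage seedlings raised 5 to 7 days in quartz sand in 96-well plates under controlled conditions.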

Poa annua [1] = test: Herbicidal early post-emergence action (96-well microtiter plates), POAAN; conditions: 1900 g/ha, scored 9 to 12 days after treatment, 100% = plants have died, 0% = like untreated control plants
In short: as §1

Lolium rigidum [2] = test: Herbicidal post-emergence action (greenhouse pots), LOLRI; conditions: 1280 g/ha, rated after about 3 weeks, 100% = plants have died, 0% = like untreated control plants
Text: (§2) In the examples and tables below, the following abbreviations are used: • Undesired Plants/Weeds: • ABUTH: Abutilon theophrasti • AGSTE: Agrostis tenuis • AMARE Amaranthus retroflexus • ECHCG: Echinochloa crus-galli • LOLRI: Lolium rigidum • MATIN: Matricaria inodora • POAAN: Poa annua • SETVI: Setaria viridis • STEME: Stellaria media A. Herbicidal Early Post-Emergence Action Seeds of mono- and dicotyledonous weed plants were placed in plastic pots in sandy loam soil (doubly sown with in each case one species of mono- or dicotyledonous weed plants per pot), covered with soil and cultivated in a greenhouse under controlled growth conditions. 2 to 3 weeks after sowing, the test plants were treated at the one-leaf stage. The compounds of the invention, formulated in the form of wettable powders (WP) or as emulsion concentrates (EC), were applied onto the green parts of the plants as aqueous suspension or emulsion with addition of 0.5% additive at a water application rate of 600 liters per hectare (converted). After the test plants had been kept in the greenhouse under optimum growth conditions for about 3 weeks, the activity of the preparations was rated visually in comparison to untreated controls. For example, 100% activity=the plants have died, 0% activity=like untreated control plants. Tables B1-B8 below show the effects of selected compounds of the general formula (I) according to Table 1 above on various harmful plants and an application rate corresponding to 1280 g/ha, which were obtained by the experimental procedure mentioned above.

Poa annua [3] = test: Herbicidal post-emergence action (greenhouse pots), POAAN; conditions: 1280 g/ha, visual rating about 3 weeks after treatment vs untreated controls
In short: (§3)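 Foliar application to potted greenhouse weeds at the one-leaf stage used 1280 g/ha in 600 L/ha water with 0.5% additive (WP or EC). Plants then stayed under optimum conditions about 3 weeks before visual rating, where 100% meant death and 0% matched untreated.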

Setaria viridis [4] = test: Herbicidal post-emergence action (greenhouse pots), SETVI; conditions: 1280 g/ha, rated after about 3 weeks, 100% = plants have died, 0% = like untreated control plants
In short: as §3

Abutilon theophrasti [5] = test: Herbicidal post-emergence action (greenhouse pots), ABUTH; conditions: 1280 g/ha, visual rating about 3 weeks after treatment vs untreated controls
In short: as §3

Amaranthus retroflexus [6] = test: Herbicidal post-emergence action (greenhouse pots), AMARE; conditions: 1280 g/ha, visual rating about 3 weeks after treatment vs untreated controls
In short: as §3

Matricaria inodora [7] = test: Herbicidal post-emergence action (greenhouse pots), MATIN; conditions: 1280 g/ha, visual rating about 3 weeks after treatment vs untreated controls
Text: as §2

Stellaria media [8] = test: Herbicidal post-emergence action (greenhouse pots), STEME; conditions: 1280 g/ha, visual rating about 3 weeks after treatment vs untreated controls
In short: as §3

Echinochloa crus-galli [9] = test: Herbicidal pre-emergence action (greenhouse pots), ECHCG; conditions: 1280 g/ha, visual scoring after about 3 weeks vs untreated controls
In short: (§4)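 Each sandy loam pot was doubly sown with weeds, then covered with soil and treated on the soil surface at 1280 g/ha. The spray liquid contained 0.5% additive at a water rate of 600 L/ha. Effects were rated visually as % relative to untreated plants after about 3 weeks under greenhouse conditions.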

Lolium rigidum [10] = test: Herbicidal pre-emergence action (greenhouse pots), LOLRI; conditions: 1280 g/ha, visual scoring after about 3 weeks vs untreated controls
Text: (§5) In the examples and tables below, the following abbreviations are used: • Undesired Plants/Weeds: • ABUTH: Abutilon theophrasti • AGSTE: Agrostis tenuis • AMARE Amaranthus retroflexus • ECHCG: Echinochloa crus-galli • LOLRI: Lolium rigidum • MATIN: Matricaria inodora • POAAN: Poa annua • SETVI: Setaria viridis • STEME: Stellaria media A. Herbicidal Early Post-Emergence Action Seeds of mono- and dicotyledonous weed plants were placed in plastic pots in sandy loam soil (doubly sown with one species each of mono- or dicotyledonous weed plants per pot) and covered with soil. The compounds of the invention, formulated in the form of wettable powders (WP) or as emulsion concentrates (EC), were then applied onto the surface of the covering soil as aqueous suspension or emulsion with addition of 0.5% additive at a water application rate of 600 liters per hectare (converted). After the treatment, the pots were placed in a greenhouse and kept under good growth conditions for the test plants. After about 3 weeks, the effect of the preparations was scored visually in comparison with untreated controls as percentages. For example, 100% activity=the plants have died, 0% activity=like untreated control plants. Tables C1-C8 below show the effects of selected compounds of the general formula (I) according to Table 1 above on various harmful plants and an application rate corresponding to 1280 g/ha, which were obtained by the experimental procedure mentioned above.

Poa annua [11] = test: Herbicidal pre-emergence action (greenhouse pots), POAAN; conditions: 1280 g/ha, visual scoring after about 3 weeks vs untreated controls
In short: as §4

Setaria viridis [12] = test: Herbicidal pre-emergence action (greenhouse pots), SETVI; conditions: 1280 g/ha, visual scoring after about 3 weeks vs untreated controls
In short: as §4

Abutilon theophrasti [13] = test: Herbicidal pre-emergence action (greenhouse pots), ABUTH; conditions: 1280 g/ha, visual scoring after about 3 weeks vs untreated controls
Text: as §5

Amaranthus retroflexus [14] = test: Herbicidal pre-emergence action (greenhouse pots), AMARE; conditions: 1280 g/ha, visual scoring after about 3 weeks vs untreated controls
In short: as §4

Matricaria inodora [15] = test: Herbicidal pre-emergence action (greenhouse pots), MATIN; conditions: 1280 g/ha, visual scoring after about 3 weeks vs untreated controls
In short: as §4

Stellaria media [16] = test: Herbicidal pre-emergence action (greenhouse pots), STEME; conditions: 1280 g/ha, visual scoring after about 3 weeks vs untreated controls
In short: as §4

Echinochloa crus-galli [17] = test: Herbicidal post-emergence action (greenhouse pots), ECHCG; conditions: 1280 g/ha, rated after about 3 weeks, 100% = plants have died, 0% = like untreated control plants
In short: as §3

Row | Structure (SMILES) | AGSTE (herbicidal activity, scored visually in comparison to untreated controls) (Agrostis tenuis) [%] | POAAN (herbicidal activity, scored visually in comparison to untreated controls) (Poa annua [1]) [%] | LOLRI (herbicidal activity, rated visually in comparison to untreated controls) (Lolium rigidum [2]) [%] | herbicidal activity POAAN (Poa annua [3]) [%] | SETVI (herbicidal activity, rated visually in comparison to untreated controls) (Setaria viridis [4]) [%] | herbicidal activity ABUTH (Abutilon theophrasti [5]) [%] | herbicidal activity AMARE (Amaranthus retroflexus [6]) [%] | herbicidal activity MATIN (Matricaria inodora [7]) [%] | herbicidal activity STEME (Stellaria media [8]) [%] | herbicidal activity ECHCG (Echinochloa crus-galli [9]) [%] | herbicidal activity LOLRI (Lolium rigidum [10]) [%] | herbicidal activity POAAN (Poa annua [11]) [%] | herbicidal activity SETVI (Setaria viridis [12]) [%] | herbicidal activity ABUTH (Abutilon theophrasti [13]) [%] | herbicidal activity AMARE (Amaranthus retroflexus [14]) [%] | herbicidal activity MATIN (Matricaria inodora [15]) [%] | herbicidal activity STEME (Stellaria media [16]) [%] | ECHCG (herbicidal activity, rated visually in comparison to untreated controls) (Echinochloa crus-galli [17]) [%]
1 | N#Cc1cccc(Nc2ncc(Cl)cn2)c1Oc1ccc(F)nc1 [Example 3-55] | 100 | 100 | 90 | 100 | 90 | 100 | 100 | 90 | 100 | 100 | 100 | 100 | 100 | 100 | 100 | 100 | 100 | 
2 | N#Cc1cccc(Nc2ncc(Cl)cn2)c1Oc1ccc(F)cc1 [Example 1-286] | 100 | 100 | 90 | 100 | 100 | 100 | 100 |  | 100 |  | 90 | 100 | 100 | 90 | 100 | 100 | 100 | 100
3 | N#Cc1cccc(Nc2ncc(F)cn2)c1Oc1ccc(F)cc1 [Example 1-267] | 100 | 100 | 90 | 100 |  | 100 | 100 |  | 100 | 100 | 100 | 100 | 100 | 100 | 100 | 100 | 100 | 100
4 | N#Cc1cccc(Nc2ncc(F)cn2)c1Oc1ccc(F)c(F)c1 [Example 1-272] | 100 | 100 | 100 | 100 | 100 | 100 | 100 | 100 | 100 | 100 | 100 | 100 | 100 | 100 | 100 | 100 | 100 | 100
5 | N#Cc1cccc(Nc2ncc(F)cn2)c1Oc1ccc(F)nc1 [Example 3-53] | 100 | 100 | 90 | 100 | 90 | 100 | 100 | 90 | 100 | 100 | 100 | 100 | 100 | 100 | 100 | 100 | 100 | 100

From US12415786B2, “Substituted 2-heteroarylaminobenzenes and the salts thereof and their use as herbicidal agents” (Bayer Aktiengesellschaft, priority 2019, dated 2025)
